From ChEMBL document CHEMBL5137054, “Xyloketal B Reverses Nutritional Hepatic Steatosis, Steatohepatitis, and Liver Fibrosis through Activation of the PPARα/PGC1α Signaling Pathway” (J Nat Prod, 2022)
Calls of active or inactive are those of the source.

Experiments:
Type in all cases: functional, organism-based
Conditions in all cases: time 6.0 weeks
Mus musculus [1] = experiment: Upregulation of Acaa1a gene transcriptional level in HFD-induced C57BL/6J mouse model of NAFL at 15 mg/kg/day, ip administered from week 7 to week 12 by qRT-PCR analysis
Mus musculus [2] = experiment: Upregulation of long-chain specific acyl-CoA dehydrogenase gene transcriptional level in HFD-induced C57BL/6J mouse model of NAFL at 15 mg/kg/day, ip administered from week 7 to week 12 by qRT-PCR analysis
Mus musculus [3] = experiment: Upregulation of Medium-chain specific acyl-CoA dehydrogenase gene transcriptional level in HFD-induced C57BL/6J mouse model of NAFL at 15 mg/kg/day, ip administered from week 7 to week 12 by qRT-PCR analysis
Mus musculus [4] = experiment: Upregulation of Acox1 gene transcriptional level in HFD-induced C57BL/6J mouse model of NAFL at 15 mg/kg/day, ip administered from week 7 to week 12 by qRT-PCR analysis
Mus musculus [5] = experiment: Upregulation of Acox2 gene transcriptional level in HFD-induced C57BL/6J mouse model of NAFL at 15 mg/kg/day, ip administered from week 7 to week 12 by qRT-PCR analysis
Mus musculus [6] = experiment: Upregulation of peroxisomal bifunctional enzyme gene transcriptional level in HFD-induced C57BL/6J mouse model of NAFL at 15 mg/kg/day, ip administered from week 7 to week 12 by qRT-PCR analysis
Mus musculus [7] = experiment: Upregulation of Cyp4a10 gene transcriptional level in HFD-induced C57BL/6J mouse model of NAFL at 15 mg/kg/day, ip administered from week 7 to week 12 by qRT-PCR analysis
Mus musculus [8] = experiment: Upregulation of Cyp4a14 gene transcriptional level in HFD-induced C57BL/6J mouse model of NAFL at 15 mg/kg/day, ip administered from week 7 to week 12 by qRT-PCR analysis
Mus musculus [9] = experiment: Upregulation of Cpt1a gene transcriptional level in HFD-induced C57BL/6J mouse model of NAFL at 15 mg/kg/day, ip administered from week 7 to week 12 by qRT-PCR analysis
Mus musculus [10] = experiment: Upregulation of Cpt1b gene transcriptional level in HFD-induced C57BL/6J mouse model of NAFL at 15 mg/kg/day, ip administered from week 7 to week 12 by qRT-PCR analysis
Mus musculus [11] = experiment: Upregulation of Cpt1c gene transcriptional level in HFD-induced C57BL/6J mouse model of NAFL at 15 mg/kg/day, ip administered from week 7 to week 12 by qRT-PCR analysis

Measured: Activity

CC(C)c1c(C(=O)Nc2ccccc2)c(-c2ccccc2)c(-c2ccc(F)cc2)n1CC[C@@H](O)C[C@@H](O)CC(=O)O
active: all assays above
